Source: patent US12545637B2, “Extrahepatic targeted cationic lipid compound with high efficiency and low toxicity and its composition” (BEIJING YOUCARE KECHUANG PHARMACEUTICAL TECHNOLOGY CO., LTD., priority 2023, dated 2026)

Key:
[1] = Detection of encapsulation efficiency, drug loading concentration and total RNA concentration (RiboGreen); format: physicochemical; conditions: for Drug loading concentration / Encapsulation efficiency / Total RNA concentration: LNP formulation prepared from the cationic lipid; for encapsulation efficiency higher than ALC-0315: difference vs ALC-0315; for encapsulation efficiency higher than HIMA: difference vs HIMA (HHMA); for encapsulation efficiency higher than SM-102: difference vs SM-102; for encapsulation efficiency higher than YK-009: difference vs YK-009; for encapsulation efficiency higher than compound 21: difference vs compound 21; for encapsulation efficiency higher than compound 23: difference vs compound 23; for drug loading concentration, times that of ALC-0315 / total RNA concentration, times that of ALC-0315: ratio vs ALC-0315; for drug loading concentration, times that of HIMA / total RNA concentration, times that of HIMA: ratio vs HIMA (HHMA); for drug loading concentration, times that of SM-102 / total RNA concentration, times that of SM-102: ratio vs SM-102; for drug loading concentration, times that of YK-009 / total RNA concentration, times that of YK-009: ratio vs YK-009; for drug loading concentration, times that of compound 21 / total RNA concentration, times that of compound 21: ratio vs compound 21; for drug loading concentration, times that of compound 23 / total RNA concentration, times that of compound 23: ratio vs compound 23
Description: Encapsulation efficiency is a key quality attribute of liposomes, which refers to the percentage of drug content encapsulated in the lipid bimolecular layer accounting for the total drug dose and can reflect the degree of drug encapsulation in liposomes. The Chinese Pharmacopoeia stipulates that the encapsulation efficiency should generally not be less than 80%.
The drug loading amount is the ratio of the amount of drug in the liposome to the total amount of drug and carrier in the liposome. The drug loading amount directly affects the clinical application dose of the drug. […] The drug loading concentration is proportional to the drug loading amount, and the relative proportion of the drug loading concentrations can represent the relative proportion of the drug loading amounts. The relative ratio of the total RNA concentrations may represent the relative ratio of the amounts of mRNA carried by the LNP formulations.
1×TE buffer, 0.1% Triton X-100 buffer, RiboGreen reagent (1: 200) and mRNA standard stock solution were prepared.
An appropriate amount of the sample was added to an appropriate amount of 1×TE buffer, and the mixture was diluted to obtain a solution containing approximately […] sample per 1 mL. Then the sample was added to a 96-well plate, and 50 μL of the diluted test sample or the mRNA standard stock solution was added to each well, then 1×TE buffer and 0.1% Triton X-100 buffer were added. The sample was incubated at 37° C. for 10 minutes, and 100 μL RiboGreen reagent (1:200) was added to each well of the test sample in the 96-well plate. The sample was centrifugated, and the data were read using a microplate reader, and processed.

293T cells = assay: Cell transfection test of LNP formulation of eGFP-mRNA (optimization of preparation conditions); format: cell-based; conditions: for transfection efficiency at different molar ratios of polymer-conjugated lipid DMG-PEG2000 to carrier: 0.5% to 15%; for transfection effect at different molar ratios of cationic lipid, neutral lipid, structured lipid and polymer-conjugated lipid: 75:5:15:5 to 25:5:65:5
Method: The cationic lipid compound YK-407 synthesized in Example 1 was dissolved in ethanol with DSPC (AVT (Shanghai) Pharmaceutical Technology Co., Ltd.), cholesterol (AVT (Shanghai) Pharmaceutical Technology Co., Ltd.) and DMG-PEG2000 according to a molar ratio of 49:10:39.5:1.5, respectively, to prepare an ethanol lipid solution. The ethanol lipid solution was quickly added to citrate buffer (pH=4-5) by ethanol injection method, and vortexed for 30s for later use. eGFP-mRNA was diluted in citrate buffer (pH=4-5) to give an aqueous mRNA solution. A certain volume of liposome solution and mRNA aqueous solution were used to prepare liposomes at weight ratios of total lipids to mRNA of 5:1, 10:1, 15:1, 20:1, 30:1 and 35:1, respectively. The mixtures were sonicated at 25° C. for 15 min (with an ultrasonic frequency of 40 kHz and an ultrasonic power of 800 W). The resulted liposomes were diluted to 10 times volume with PBS, and then ultrafiltered with a 300KDa ultrafiltration tube to remove ethanol. Then the volume was fixed to a certain volume with PBS to give an LNP formulation encapsulating eGFP-mRNA using cationic lipid YK-407/DSPC/cholesterol/DMG-PEG2000 (49:10:39.5:1.5 in molar percentage).
The LNP formulation encapsulating eGFP-mRNA was prepared according to the method in 1, wherein the molar ratios of cationic lipid YK-407 to neutral lipid DSPC were 1:1, 3:1, 3.5:1, 4:1, 4.5:1, 4.9:1, 10:1, 15:1 and 20:1.
The LNP formulation encapsulating eGFP-mRNA was prepared according to the method in 1, wherein the cationic lipid in the carrier was YK-407, and the molar ratios of the polymer-conjugated lipid DMG-PEG2000 to the carrier were 0.5%, 1.5%, 3.5%, 5%, 10% and 15%, respectively.
The LNP formulation encapsulating eGFP-mRNA was prepared according to the method in 1, wherein the molar ratios of cationic lipid YK-407, neutral lipid DSPC, structured lipid cholesterol and polymer-conjugated lipid DMG-PEG2000 were 75:5:15:5, 49:10:39.5:1.5, 45:10:43.5:1.5, 45:25:20:10, 40:10:48.5:1.5, 35:10:53.5:1.5 and 25:5:65:5, respectively.
Cell recovery and passage: 293T cells were recovered, cultured in a culture dish, and passaged to the required number of cells.
Seeding plate: The cells in the culture dish were digested and counted. Cells were spread in a 96-well plate at 10,000 cells per well and in a 12-well plate at 150,000 cells per well. Cells were cultured overnight until the cells adhered to the wall.
Cell transfection test: The LNP formulation containing 1.5 μg of eGFP-mRNA prepared in Example 2 (the cationic lipid in the carrier was YK-407) and the Lipofectamin 3000 formulation of eGFP-mRNA were added respectively to the cell culture medium of the 12-well plate, and further incubated for 24 hours. The transfection efficiency of different samples was then investigated according to the fluorescence intensity by observing with a fluorescence microscope.

Structure (SMILES) | Drug loading concentration [1] | Encapsulation efficiency [1] | Total RNA concentration [1] | encapsulation efficiency higher than ALC-0315 [1] | encapsulation efficiency higher than HIMA [1] | encapsulation efficiency higher than SM-102 [1] | encapsulation efficiency higher than YK-009 [1] | encapsulation efficiency higher than compound 21 [1] | encapsulation efficiency higher than compound 23 [1] | drug loading concentration, times that of ALC-0315 [1] | total RNA concentration, times that of ALC-0315 [1] | drug loading concentration, times that of HIMA [1] | total RNA concentration, times that of HIMA [1] | drug loading concentration, times that of SM-102 [1] | total RNA concentration, times that of SM-102 [1] | drug loading concentration, times that of YK-009 [1] | total RNA concentration, times that of YK-009 [1] | drug loading concentration, times that of compound 21 [1] | total RNA concentration, times that of compound 21 [1] | drug loading concentration, times that of compound 23 [1] | also measured
CCCCCCCCC(CCCCCCCC)OC(=O)CCCCCN(CCO)CCN(CCO)CCCCCC(=O)OC(CCCCCCCC)CCCCCCCC [YK-401, di(heptadecan-9-yl) 6,6′-(ethane-1,2-diyl-bis((2-hydroxyethyl)azanediyl))dihexanoate] | 37.16 µg/mL | 83.6% | 41.71 µg/mL | 20.3% | 23.4% | 20.7% | 20.2% | 25.6% | 27.4% | 1.38 | 1.10 | 1.14 | 1.14 | 1.40 | 1.16 | 1.35 | 1.08 | 1.69 | 1.44 | 1.86 | total RNA concentration, times that of compound 23 [1]: 1.34; transfection efficiency at different molar ratios of polymer-conjugated lipid DMG-PEG2000 to carrier (293T cells): same results; transfection effect at different molar ratios of cationic lipid, neutral lipid, structured lipid and polymer-conjugated lipid (293T cells): same results
CCCCCCCCC(CCCCCCCC)OC(=O)CCCCCCCN(CCO)CCN(CCO)CCCCCCCC(=O)OC(CCCCCCCC)CCCCCCCC [YK-403, di(heptadecan-9-yl) 8, 8′-(ethane-1,2-diyl-bis((2-hydroxyethyl)azanediyl))dioctanoate] | 34.21 µg/mL | 87.9% | 40.53 µg/mL | 24.6% | 27.7% | 25.0% | 24.4% | 29.9% | 31.7% | 1.27 | 1.07 | 1.05 | 1.11 | 1.29 | 1.12 | 1.24 | 1.05 | 1.56 | 1.40 | 1.71 | total RNA concentration, times that of compound 23 [1]: 1.31; transfection efficiency at different molar ratios of polymer-conjugated lipid DMG-PEG2000 to carrier (293T cells): same results; transfection effect at different molar ratios of cationic lipid, neutral lipid, structured lipid and polymer-conjugated lipid (293T cells): same results
CCCCCCCCC(CCCCCCCC)COC(=O)CCCCCN(CCCO)CCN(CCCO)CCCCCC(=O)OCC(CCCCCCCC)CCCCCCCC [YK-422, di(2-octyldecyl) 6,6′-(ethane-1,2-diyl-bis((3-hydroxypropyl)azanediyl))dihexanoate] | 45.05 µg/mL | 92.4% | 45.76 µg/mL | 29.1% | 32.2% | 29.5% | 29.0% | 34.4% | 36.2% | 1.68 | 1.21 | 1.38 | 1.26 | 1.70 | 1.27 | 1.64 | 1.19 | 2.05 | 1.58 | 2.25 | total RNA concentration, times that of compound 23 [1]: 1.47; transfection efficiency at different molar ratios of polymer-conjugated lipid DMG-PEG2000 to carrier (293T cells): same results; transfection effect at different molar ratios of cationic lipid, neutral lipid, structured lipid and polymer-conjugated lipid (293T cells): same results
CCCCCCCCC(CCCCCCCC)COC(=O)CCCCCN(CCCO)CCCN(CCCO)CCCCCC(=O)OCC(CCCCCCCC)CCCCCCCC [YK-423, di(2-octyldecyl) 6,6′-(propan-1,3-diyl-bis((3-hydroxypropyl)azanediyl))dihexanoate] | 37.47 µg/mL | 89.7% | 41.00 µg/mL | 26.4% | 29.5% | 26.8% | 26.3% | 31.7% | 33.5% | 1.39 | 1.08 | 1.15 | 1.13 | 1.41 | 1.14 | 1.36 | 1.06 | 1.71 | 1.42 | 1.87 | total RNA concentration, times that of compound 23 [1]: 1.32; transfection efficiency at different molar ratios of polymer-conjugated lipid DMG-PEG2000 to carrier (293T cells): same results; transfection effect at different molar ratios of cationic lipid, neutral lipid, structured lipid and polymer-conjugated lipid (293T cells): same results
